System: breast cancer patients
Experiment: Chemotherapeutic effect of anticancer agent: tumor size reduction evaluated by palpation in breast cancer patients
Type: in vivo, human
Protocol: An anticancer agent docetaxel (Aventis) was administered 4 times with an interval of 3 to 4 weeks, with 60 mg/M^2 (body surface area) per dosage for the breast cancer patients A through I. After the administration, the tumor size reduction was assessed.
A pathologist evaluated the tumors by palpation according to the criteria described in the following paper: Arbuck S G, Eisenhauer E A, Wanders J, Kaplan R S, Rubinstein L, Verweij J, Van Glabbeke M, van Oosterom A T, Christian M C, and Gwyther S G, “New guidelines to evaluate the response to treatment in solid tumors”, J. Natl. Cancer Inst 2000; 92: 205-21. When the tumor was evaluated with the result of “Complete response” and “Partial response”, the tumor was classified into the group of tumor size reduction. When the tumor was evaluated with the result of “Stable Disease” and “Progressive Disease”, the tumor was classified into the group of non-tumor size reduction.
An anticancer agent paclitaxel (Bristol Meyers Squibb) was administered once a week for 12 consecutive weeks, with 80 mg/M^2 (body surface area) per dosage for the breast cancer patients A through I (sic, correctly, J through P). After the administration, the tumor size reduction was assessed according to the same criterion as used in the administration of docetaxel.

[1] = docetaxel 60 mg/M^2 per dosage, 4 times with an interval of 3 to 4 weeks, breast cancer patients A through I

Row | Structure (SMILES) | patients who were assessed that the tumor size reduction was observed (paclitaxel 80 mg/M^2 per dosage, once a week for 12 consecutive weeks, breast cancer patients J through P) | patients classified into non-tumor size reduction group (Stable Disease or Progressive Disease) [1] | patients classified into tumor size reduction group (Complete response or Partial response) [1]
1 | CC(=O)O[C@H]1C(=O)[C@@]2(C)[C@H]([C@H](OC(=O)c3ccccc3)[C@]3(O)C[C@H](OC(=O)[C@H](O)[C@@H](NC(=O)c4ccccc4)c4ccccc4)C(C)=C1C3(C)C)[C@]1(OC(C)=O)CO[C@@H]1C[C@@H]2O [paclitaxel] | K, L, M, N, O, and P |  | 
2 | CC(=O)O[C@@]12CO[C@@H]1C[C@H](O)[C@@]1(C)C(=O)[C@H](O)C3=C(C)[C@@H](OC(=O)[C@H](O)[C@@H](NC(=O)OC(C)(C)C)c4ccccc4)C[C@@](O)([C@@H](OC(=O)c4ccccc4)[C@H]21)C3(C)C [docetaxel] |  | A, B, C, and D | E, F, G, H, and I

From patent US20070231837A1, “Method of Assessing Properties of Mammalian Cells, and Method of Diagnosing Cancer Using the Same” (priority 2004, published 2007)
